According to US20090011410A1, “METHOD FOR TAILORING ADMINISTRATION OF DRUGS BY QUANTITATION OF MRNA” (priority 2004, published 2009):

Key:
Assay type in all cases: cell-based, human
PUMA mRNA = test: drug-induced PUMA mRNA expression in whole blood of healthy adults; details: for kinetics of PUMA induction: heparinized whole blood, 0-8 hours at 37° C., 20 μM BLM, 100 μM VP-16 (FIG. 5)
Protocol: (§1) In 8-well strip microtubes, 1.4 μl of 50× concentrations of drugs or controls (phosphate buffered saline (PBS) or DMSO) were added, and stored at −20° C. until use. […] Seventy μl of fresh heparinized whole blood was added into each well in triplicate, and incubated at 37° C. for 2-8 hours with the cap closed. For radiation treatment, blood was stimulated at designated doses using cesium-137. After each treatment, 50 μl of whole blood was transferred to filterplates as described below.
The mRNA and cDNA were prepared from whole blood. In brief, home-made 96-well filterplates were placed over collection plates, and 150 μl 5 mM Tris, pH 7.4, was applied. Following centrifugation at 120×g for 1 min at 4° C., 50 μl of blood samples were applied to each well and immediately centrifuged at 120×g for 2 min at 4° C., followed by washing of each well with 300 μl PBS once with centrifugation at 2000×g for 5 min at 4° C. Then, 60 μl stock lysis buffer, containing for example 0.5% N-Lauroylsarcosine, 4×SSC, 10 mM Tris HCl, pH 7.4, 1 mM EDTA, 0.1% IGEPAL CA-630, and 1.791 M guanidine thiocyanate, supplemented with 1% 2-mercaptoethanol (Bio Rad, Hercules, Calif., USA), 0.5 mg/ml proteinase K (Pierce, Rockford, Ill., USA), 0.1 mg/ml salmon sperm DNA (5 Prime Eppendorf/Brinkmann, Westbury, N.Y., USA), 0.1 mg/ml E. coli tRNA (Sigma), a cocktail of 10 mM each of the specific reverse primers shown in Table 1, and standard RNA34 oligonucleotides, were applied to the filterplates, followed by incubation at 37° C. for 10 min. The filterplates were then placed over oligo(dT)-immobilized microplates (GenePlate, RNAture), and centrifuged at 2000×g for 5 min at 4° C. Following overnight storage at 4° C., the microplates were washed with 100 μl plain lysis buffer 3 times, followed by 150 μl of wash buffer (0.5 M NaCl, 10 mM Tris, pH 7.4, 1 mM EDTA) 3 times at 4° C. The cDNA was directly synthesized in each well by adding 30 μl buffer containing 1×RT-buffer, 1.25 mM each of dNTP, 4 units rRNasin, and 80 units of MMLV reverse transcriptase (Promega) (without primers), and incubation at 37° C. for 2 hours. The specific primer-primed cDNA existed in solution, and oligo(dT)-primed cDNA stayed immobilized in the microplate. For TaqMan PCR (FIGS. 1, 3, 4), the resultant 4 μl cDNA solution was directly transferred to 384-well PCR plates, to which 5 μl of TaqMan universal master mix (ABI) and 1 μl oligonucleotide cocktail (15 μM each of forward and reverse primer, and 3-6 μM TaqMan probe) were applied, and PCR was conducted in PRISM 7900HT (ABI), with one cycle of 95° C. for 10 min followed by 45 cycles of 95° C. for 30 sec, 55° C. for 30 sec, and 60° C. for 1 min. For SYBR Green PCR (see FIG. 6), cDNA was diluted 3-4 fold in water, and 4 μl cDNA solution was directly transferred to 384-well PCR plates, to which 5 μl of a master mix (BioRad, Hercules, Calif.) and 1 μl of oligonucleotide cocktail (15 μM each of forward and reverse primer) were applied, and PCR was conducted in PRISM 7900HT (ABI), with one cycle of 95° C. for 10 min followed by 45 cycles of 95° C. for 30 sec and 60° C. for 1 min. Each gene was amplified in separate wells. The Ct was determined by analytical software (SDS, ABI). Although 1×RT buffer was used as a negative control, none of the primer pairs produced non-specific primer-dimers under these experimental conditions. For PUMA in FIG. 8, immobilized cDNA on the oligo(dT)-immobilized microplates was directly amplified in an iCycler (BioRad).
Quantitation of various mRNAs was conducted using the following method. Triplicate aliquots of 50 μl each of heparinized whole blood was applied to 96-well filterplates to trap leukocytes. The filterplates were placed over collection plates, and 150 μl 5 mM Tris, pH 7.4, was applied. […]

NOXA mRNA = test: drug-induced NOXA mRNA expression in whole blood of healthy adults (SYBR green PCR screen); details: 20 μM BLM or 100 μM VP-16, 4 hours at 37° C.; degree less than PUMA (FIG. 6)
Protocol: as §1
The mRNA and cDNA were prepared from whole blood. In brief, home-made 96-well filterplates were placed over collection plates, and 150 μl 5 mM Tris, pH 7.4, was applied. Following centrifugation at 120×g for 1 min at 4° C., 50 μl of blood samples were applied to each well and immediately centrifuged at 120×g for 2 min at 4° C., followed by washing of each well with 300 μl PBS once with centrifugation at 2000×g for 5 min at 4° C. […] The Ct was determined by analytical software (SDS, ABI). […]
Quantitation of various mRNAs was conducted using the following method. […]

p21 mRNA = test: drug-induced p21 mRNA expression in whole blood of leukemia and lymphoma patients
[1] = 20 μM BLM or 100 μM VP-16, 4 hours at 37° C. (FIG. 6)

`COc1cc([C@@H]2c3cc4c(cc3[C@@H](O[C@@H]3O[C@@H]5CO[C@@H](C)O[C@H]5[C@H](O)[C@H]3O)[C@H]3COC(=O)[C@H]23)OCO4)cc(OC)c1O` [VP-16, etoposide] was tested, and the PUMA induction (PUMA mRNA; [1]) was “responses were confirmed in all individuals”, the PUMA induction (PUMA mRNA; 100 μM VP-16, 2 hours at 37° C. (FIG. 9C)) was “induced” and the “kinetics of PUMA induction” value (PUMA mRNA) was “transient induction”. For the same molecule, the NOXA induction (NOXA mRNA) was “induced in all individuals” and the “p21 mRNA induction” value (p21 mRNA; leukemic lymphoma patient 2, 2 hours at 37° C., drug concentrations (FIG. 3)) was “induced”.
In the case of bleomycin [BLM], the “concentration at which significant induction of PUMA was observed” value (PUMA mRNA; 0-20 μM BLM, 4 hours at 37° C. (FIG. 7)) is reported as “more than 0.1 VM”, the PUMA induction (PUMA mRNA; [1]) is reported as “responses were confirmed in all individuals” and the PUMA induction (PUMA mRNA; BLM at concentrations as low as 0.2 μM, 2 hours at 37° C., all cases (FIG. 10C)) is reported as “induced”. For the same molecule, the “kinetics of PUMA induction” value (PUMA mRNA) was “increased continuously for 8 hours”, the NOXA induction (NOXA mRNA) was “induced in all individuals” and the “BLM-induced p21 responses (ΔCt) compared with healthy donors” value (p21 mRNA; 1 μM BLM, 2 hours at 37° C., 13 leukemia and lymphoma patients vs 27 healthy donors, p=0.000002 (FIG. 15)) was “less than those of healthy control”.
